15 molecules from PubChem BioAssay (NCI) can be followed below.

The structures appear in SMILES notation.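 All cell lines were grown in 96-well plates and treated with compound for 48 hours. GI50 = concentration required for 50% inhibition of growth. TGI denotes the concentration required for complete inhibition of growth.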

What all share (test): growth of human tumour cells (NCI), 48 h
The subject of test [1] is DU-145 prostate.
Test [2] has as its system MDA-MB-231 breast.
Test [3] has as its system HS 578T breast.
For test [4], the system named is BT-549 breast.
In test [5] the test system is MDA-MB-435.

With `O=C1Nc2c(ccc(Cl)c2Cl)/C1=C\c1cc(C(F)(F)F)cc(C(F)(F)F)c1`, the GI50 is 5.57 µM in test [1]; 3.74 µM in test [2]; 1.21 µM in test [3]; 6.02 µM in test [4]; 1.99 µM in test [5]. The TGI in test [1] came out at 13.5 µM; in test [2], 10.8 µM; in test [3], 3.18 µM; in test [4], 12.5 µM; in test [5], 7.64 µM.
Regarding `O=C(Nc1nc(-c2ccccc2Cl)cs1)c1cc(-c2ccc(Cl)cc2)nc2ccc(Cl)cc12`, the GI50 is 4.24 µM in test [1]; 2.27 µM in test [2]; 2.67 µM in test [3]; 2.44 µM in test [4]; 1.71 µM in test [5]. For the same molecule, the TGI in test [1] was over 100 µM; in test [2] it was 15.2 µM; in test [3], 25.7 µM; in test [4], 6.99 µM; in test [5] it was 4.72 µM.
In the case of `COc1cc(/C=C2\CC3C4CCC5=CC(=O)CC[C@]5(C)C4CC[C@]3(C)C2=O)ccc1OCCN1CCCCC1` (stereo not given in full), the GI50 in test [1] is 2.06 µM; in test [2], 1.85 µM; in test [3] it was 4.79 µM; in test [4], 6.19 µM; in test [5], 1.97 µM. Also, the TGI stood at 8.33 µM in test [1]; 5.03 µM in test [2]; 23 µM in test [3]; 23.3 µM in test [4]; 4.28 µM in test [5].
On to `COc1c(OC)c(OC)c(-c2cc(=O)c3c(OC)c(OC)c(OC)c(OC)c3o2)c(OC)c1OC`, for which the TGI in test [1], in test [2], in test [3], in test [4] and in test [5] was over 100 µM throughout.
With `CC(C)(N)C(=O)N[C@@H]1C(=O)N2[C@@H]1SC(C)(C)[C@@H]2C(=O)O`, the TGI in test [1], in test [2], in test [3], in test [4] and in test [5] was over 100 µM each time.
Consider `COc1ccc(Nc2ncccc2C(=O)NCc2cn(Cc3cccc(Oc4ccccc4)c3)nn2)c(OC)c1`, for which the GI50 in test [1] was 3.52 µM; in test [2] it was 3.63 µM; in test [3], 9.52 µM; in test [4], 2.99 µM; in test [5], 0.24 µM. Besides, the TGI in test [1] was over 81.5 µM; in test [2], over 28.1 µM; in test [3] it was over 100 µM; in test [4], over 100 µM; in test [5], 0.707 µM.
On to `CCC1OC(=O)CC(O)C(C)C(OC2OC(C)CC(N(C)C)C2O)C(CC=O)CC(C)C(=O)/C=C/C2(C)OC2C1C` (stereo not given), for which the TGI is 61.2 µM in test [1]; 53.8 µM in test [2]; over 100 µM in test [3]; 31.8 µM in test [4]; 40.3 µM in test [5].
The corresponding values for `O=C(O)C1C2CCC(O2)C1C(=O)NCc1cccnc1` (stereo not given) are over 100 µM, over 100 µM, over 100 µM, over 100 µM and over 100 µM.
With `CCN(CC)CCNC(=O)C(Cl)=C1C(Cl)=C(Cl)C(Cl)=C1Cl`, the GI50 in test [1] was 2.78 µM; in test [2] it was 3.83 µM; in test [3], 3.01 µM; in test [4], 12.6 µM; in test [5], 2.24 µM. Moreover, the TGI is 10.8 µM in test [1]; 31.3 µM in test [2]; 25.3 µM in test [3]; 25.3 µM in test [4]; 6.54 µM in test [5].
In the case of `Cc1nc2cc(Nc3nc(Nc4ccc(F)cc4)nc(N4CCCC4)n3)ccc2n1Cc1ccccc1`, the GI50 is 1.87 µM in test [1]; 1.78 µM in test [2]; 2.23 µM in test [3]; 1.88 µM in test [4]; 1.62 µM in test [5]. Further, the TGI in test [1] is 3.35 µM; in test [2] it was 3.27 µM; in test [3], 6.67 µM; in test [4], 3.5 µM; in test [5], 3.09 µM.
On to `COC1/C=C/OC2(C)Oc3c(C)c(O)c4c(O)c(c(C=NOC(c5ccccc5)c5ccccc5)c(O)c4c3C2=O)NC(=O)/C(C)=C/C=C/C(C)C(O)C(C)C(O)C(C)C(OC(C)=O)C1C` (stereo not given), for which the GI50 was 2.05 µM in test [1]; 1.35 µM in test [2]; 1.5 µM in test [3]; 1.62 µM in test [4]; 1.18 µM in test [5]. Moreover, the TGI is 6.87 µM in test [1]; 3.49 µM in test [2]; 5.17 µM in test [3]; 5.47 µM in test [4]; 3.01 µM in test [5].
Regarding `Nc1nc(Cl)nc2c1ncn2C1OC(CO)C(O)C1O` (stereo not given), the GI50 in test [1] was 6.76 µM; in test [2] it was over 100 µM; in test [3] it was over 100 µM; in test [4] it was 16.8 µM; in test [5] it was 3.01 µM. Further, the TGI in test [1], in test [2], in test [3], in test [4] and in test [5] was over 100 µM throughout.
Take `O=C(Nc1ccc(Cl)cc1)c1cc2ccccc2cc1OP(=O)(O)O`: the GI50 in test [1] was 3.94 µM; in test [2], 3.01 µM; in test [3], 2.96 µM; in test [4], 2.89 µM; in test [5], 3.27 µM. The TGI in test [1] turned out to be 17.8 µM; in test [2], 16.6 µM; in test [3], 19.8 µM; in test [4], 9.24 µM; in test [5] it was 32.3 µM.
For `CC/C(=C(/CC)c1ccc(O)cc1)c1ccc(O)cc1`, the GI50 in test [1] is 10 µM; in test [2] it was 10 µM; in test [3], 4.17 µM; in test [4], 6.16 µM; in test [5], 1.87 µM. Besides, the TGI stood at 22.4 µM in test [1]; 25.2 µM in test [2]; 32 µM in test [3]; 21.5 µM in test [4]; 5.14 µM in test [5].
`O=C(c1ccccc1)c1c2n(c3c1cc(O)c1ccccc13)CCN2`: the GI50 in test [1] was 13.2 µM; in test [2], 2.13 µM; in test [3], 10.9 µM; in test [4], 13.5 µM; in test [5], 1.99 µM. Moreover, the TGI in test [1] was 27.1 µM; in test [2], 4.51 µM; in test [3] it was over 100 µM; in test [4] it was 30.6 µM; in test [5], 3.73 µM.
